Active and inactive are the calls of the source. The rule behind the calls is not given here.
Columns and labels:
Influenza A virus [1] = assay: Antiviral activity against group 2 influenza A virus H3N2 (A/Hong Kong-11/1968) infected in MDCK cells infected with supernatant of compound treated virus-producing human A549 cells assessed as reduction in viral titer at 1 to 10 uM treated for 48 hrs with virus-producing human A549 cells followed by MDCK cells infection for 48 hrs by crystal violet staining based plaque assay; assay type: functional, organism-based; settings: dose 1-10 µM, time 96.0 hrs
Influenza A virus [2] = assay: Antiviral activity against group 2 influenza A virus H3N2 (A/Victoria/361/2011) infected in MDCK cells infected with supernatant of compound treated virus-producing human A549 cells assessed as reduction in viral titer at 1 to 10 uM treated for 48 hrs with virus-producing human A549 cells followed by MDCK cells infection for 48 hrs by crystal violet staining based plaque assay; assay type: functional, organism-based; settings: dose 1-10 µM, time 96.0 hrs
Influenza A virus [3] = assay: Antiviral activity against group 2 influenza A H7N1 pseudotyped virus infected in A549 cells assessed as inhibition of viral entry incubated for 48 hrs by measuring luciferase activity by Neolite reporter gene assay; assay type: functional, organism-based; settings: H7N1, A549, 48 h
[4] = Cytotoxicity against human A549 cells incubated for 48 hrs by celltiter-glo luminescent cell viability assay; assay type: toxicity, cell-based
[5] = Selectivity index, ratio of CC50 for human A549 cells to IC50 for group 2 influenza A H7N1 pseudotyped virus infected in A549 cells; assay type: toxicity, cell-based; settings: read-out: Ratio CC50/IC50
Influenza A virus [6] = assay: Antiviral activity against […] influenza A H5N1 pseudotyped virus infected in A549 cells assessed as inhibition of viral entry incubated for 48 hrs by measuring luciferase activity by Neolite reporter gene assay; assay type: functional, organism-based; settings: H5N1, A549, 48 h
[7] = system: Vesicular stomatitis virus; assay: Antiviral activity against VSV pseudotyped virus infected in A549 cells assessed as inhibition of viral entry incubated for 48 hrs by measuring luciferase activity by Neolite reporter gene assay; assay type: functional, organism-based; settings: A549, 48 h
[8] = Selectivity index, ratio of CC50 for human A549 cells to IC50 for […] influenza A H5N1 pseudotyped virus infected in A549 cells; assay type: toxicity, cell-based; settings: read-out: Ratio CC50/IC50
[9] = Selectivity index, ratio of CC50 for human A549 cells to IC50 for VSV pseudotyped virus infected in A549 cells; assay type: toxicity, cell-based; settings: read-out: Ratio CC50/IC50

Compound | Activity (Influenza A virus [1]) | Activity (Influenza A virus [2]) | IC50 (Influenza A virus [3]) [µM] | CC50 at 48 h [4] [µM] | selectivity ratio [5] | IC50 (Influenza A virus [6]) [µM] | IC50 [7] [µM] | selectivity ratio [8] | selectivity ratio [9]
CCOC(=O)C1=C[C@@H](OC(CC)CC)[C@H](NC(C)=O)[C@@H](N)C1 [OSELTAMIVIR] | Active | Active |  |  |  |  |  |  | 
CC(C)(C)CC(C)(C)Nc1nc2ncccn2c1-c1ccc(Br)cc1 |  |  | 8.6 | > 100 | > 12 |  |  |  | 
CCCCOc1ccc(-c2nc3ncccn3c2NCc2nc[nH]c2C)cc1 |  |  | 100 | 100 | 1 |  |  |  | 
Oc1cccc(-c2nc3ncccn3c2NC2CCCCC2)c1 |  |  | 10 | 100 | 10 |  |  |  | 
Brc1ccc(-c2nc3ncccn3c2NC2CCCCC2)c(CN2CCOCC2)c1 |  |  | 9.9 | 54 | 5 | 32 | 60 | > 1 | < 1
Nc1c(-c2ccc(Br)cc2)nc2ncccn12 |  |  | 100 | > 100 | > 1 |  |  |  | 
CCCCOc1ccc(-c2nc3ncccn3c2NC2CCCCCC2)cc1 |  |  | 0.44 | 26 | 59 |  |  |  | 
Nc1nc2ncccn2c1-c1ccc(Br)cc1 |  |  | 100 | > 100 | > 1 |  |  |  | 
Oc1ccc(-c2nc3ncccn3c2NC2CCCCC2)cc1 | Active | Active | 0.052 | > 100 |  | 36 | 65 |  | 
CCCCOc1ccc(-c2nc3ncccn3c2NCC2CCCCC2)cc1 |  |  | 0.31 | 35 | 110 |  |  |  | 
CCCCOc1ccc(-c2nc3ncccn3c2NC(C)(C)CC(C)(C)C)cc1 |  |  | 2.3 | 29 | 13 |  |  |  | 
Fc1ccc(-c2nc3ncccn3c2NC2CCCCC2)cc1 | Active | Active | 0.023 | 100 |  | 46 | 53 |  | 
CCCCOc1ccc(-c2nc3ncccn3c2NCc2ccc(OC)cc2)cc1 |  |  | 14 | 55 | 4 |  |  |  | 
CCCCOc1ccc(-c2nc3ncccn3c2N2C(=O)c3cccc(O)c3C2=O)cc1 |  |  | 15 | > 100 | > 6.6 |  |  |  | 
COc1ccccc1-c1nc2ncccn2c1N(C(C)=O)C1CCCCC1 |  |  | > 100 | > 100 | > 1 |  |  |  | 
COCCOc1ccc(-c2nc3ncccn3c2Nc2ccccc2)cc1 |  |  | 5.2 | > 100 | > 19 |  |  |  | 
CCCCOc1ccc(-c2nc3ncccn3c2N)cc1 |  |  | 100 | > 100 | > 1 |  |  |  | 
CCCCOc1ccc(-c2nc3ncccn3c2NCc2c[nH]cn2)cc1 |  |  | 38 | > 100 | > 3 |  |  |  | 
Brc1ccc(-c2nc3ncccn3c2NC2CCCCC2)cc1 | Active | Active | 0.2 | > 100 |  | > 100 | 42 |  | 
Cc1cc(Br)ccc1-c1nc2ncccn2c1NC1CCCCC1 | Active | Active | 0.17 | 45 |  | 45 | 39 |  | 
COCCOc1ccc(-c2nc3ncccn3c2NC2CCCCC2)cc1 |  |  | 0.08 | > 100 | > 1300 |  |  |  | 
CCCCOc1ccc(-c2nc3ncccn3c2Nc2ccccc2)c(C)c1 |  |  | 4.5 | 23 | 5.1 |  |  |  | 
CCNC(=O)CCCOc1ccc(-c2nc3ncccn3c2NC2CCCCC2)cc1 |  |  | 0.064 | > 100 | > 1600 |  |  |  | 

Compound | Activity (Influenza A virus [1]) | Activity (Influenza A virus [2]) | IC50 (Influenza A virus [3]) [µM] | CC50 at 48 h [4] [µM] | selectivity ratio [5] | IC50 (Influenza A virus [6]) [µM] | IC50 [7] [µM] | selectivity ratio [8] | selectivity ratio [9]
CCCCOc1ccc(-c2nc3ncccn3c2NC(C)C)cc1 |  |  | 2.3 | 68 | 30 |  |  |  | 
Fc1ccc(COc2ccc(-c3nc4ncccn4c3NC3CCCCC3)cc2)cc1 |  |  | 0.26 | 24 | 92 |  |  |  | 
CCCCOc1ccc(-c2nc3ncccn3c2Nc2ccccc2)cc1 |  |  | 100 | 100 | 1 |  |  |  | 
CN(c1c(-c2ccc(F)cc2)nc2ncccn12)C1CCCCC1 |  |  | 1.3 | > 100 | > 77 |  |  |  | 
CCCCOc1ccc(-c2nc3ncccn3c2Nc2ccc(F)cc2)cc1 |  |  | 1.5 | > 100 | > 67 |  |  |  | 
Oc1ccccc1-c1nc2ncccn2c1NC1CCCCC1 |  |  | 10 | > 100 | > 10 |  |  |  | 
CCCCOc1ccc(-c2nc3ncccn3c2NCc2ccccn2)cc1 |  |  | 16 | > 100 | > 6 |  |  |  | 
c1ccc(-c2nc3ncccn3c2NC2CCCCC2)cc1 | Active | Active | 0.66 | 100 |  | 46 | 74 |  | 
CCCCOc1ccc(-c2nc3ncccn3c2NC2CCCC2)cc1 |  |  | 1.5 | 40 | 27 |  |  |  | 
Cc1cc(C)n2c(Nc3ccc4c(c3)OCCO4)c(-c3cccc(Br)c3)nc2n1 |  |  | 0.25 | > 100 | > 400 |  |  |  | 
Brc1ccc(-c2nc3ncccn3c2Nc2ccccc2)cc1 |  |  | 1.5 | > 100 | > 67 |  |  |  | 
O=C(O)CCCOc1ccc(-c2nc3ncccn3c2NC2CCCCC2)cc1 |  |  | 0.18 | > 100 | > 560 |  |  |  | 
CCCCOc1ccc(-c2c(N)nc3ncccn23)cc1 |  |  | 58 | > 100 | > 1.7 |  |  |  | 
CCCCOc1ccc(-c2c(NC(C)(C)CC(C)(C)C)nc3ncccn23)cc1 |  |  | 8.1 | 49 | 6 |  |  |  | 
c1cnc2nc(-c3ccc(OC4CCCC4)cc3)c(NC3CCCCC3)n2c1 |  |  | 0.68 | 39 | 57 |  |  |  | 
Cc1cc(C)n2c(NC3CCCCC3)c(-c3ccc(Br)cc3)nc2n1 |  |  | 0.36 | 32 | 51 |  |  |  | 
CCCCOc1ccc(-c2nc3ncccn3c2NCc2ccc3ccccc3c2)cc1 |  |  | 6 | 33 | 6 |  |  |  | 
CCCCOc1ccc(-c2nc3ncccn3c2NCCC)cc1 |  |  | 22 | > 100 | > 5 |  |  |  | 
CC(C)(C)CC(C)(C)Nc1c(-c2ccc(Br)cc2)nc2ncccn12 |  |  | 1 | 32 | 32 |  |  |  | 
CCOC(=O)CCCOc1ccc(-c2nc3ncccn3c2NC2CCCCC2)cc1 |  |  | 1.8 | > 100 | > 560 |  |  |  | 
CCCCOc1ccc(-c2nc3ncccn3c2NCC2CC2)cc1 |  |  | 25 | > 100 | > 4 |  |  |  | 
CCCCOc1ccc(-c2nc3ncccn3c2NCc2ccco2)cc1 |  |  | 7.9 | 78 | 10 |  |  |  | 
CCCCOc1ccc(-c2nc3ncccn3c2NC2CCCCC2)c(C)c1 |  |  | 0.22 | 32 | 150 |  |  |  | 

Reference: ChEMBL document CHEMBL5108080 (J Med Chem, 2022)
